# Data reported in ChEMBL document CHEMBL1129670, “Synthesis and structure-activity relationships of N-propyl-N-(4-pyridinyl)-1H-indol-1-amine (besipirdine) and related analogs as potential therapeutic agents for Alzheimer's disease” (J Med Chem, 1996).
# Experiments:
# Mus musculus = species on record: Mus musculus; experiment: Antagonistic activity against Scopolamine induced behavioral deficits in mice; 5/6; type: functional
# [1] = target: Serotonin 2 (5-HT2) receptor (Rattus norvegicus, UniProt P30994+P08909+P14842); experiment: Inhibitory activity against [3H]spiroperidol binding to 5-HT2 receptor in rat cortex
# [2] = target: T1, 5-hydroxytryptamine receptor 1A (Rattus norvegicus, UniProt P19327); experiment: Inhibitory activity against [3H]DPAT binding to 5-HT1A receptor in rat hippocampus; type: tissue-based
# T1 sequence (P19327 whole entry): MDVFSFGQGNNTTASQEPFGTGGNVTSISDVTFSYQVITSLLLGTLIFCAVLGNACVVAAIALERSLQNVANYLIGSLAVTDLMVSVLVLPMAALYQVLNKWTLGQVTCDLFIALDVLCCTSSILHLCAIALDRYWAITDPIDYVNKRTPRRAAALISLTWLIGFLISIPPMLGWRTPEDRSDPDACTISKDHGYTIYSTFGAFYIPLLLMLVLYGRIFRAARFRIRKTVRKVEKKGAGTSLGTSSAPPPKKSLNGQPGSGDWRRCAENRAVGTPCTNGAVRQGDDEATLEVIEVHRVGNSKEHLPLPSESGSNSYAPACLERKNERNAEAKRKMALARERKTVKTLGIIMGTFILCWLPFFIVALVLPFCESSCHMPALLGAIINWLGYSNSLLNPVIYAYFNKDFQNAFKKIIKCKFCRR
# [3] = target: T2, Muscarinic acetylcholine receptor M2 (Rattus norvegicus, UniProt P10980); experiment: Inhibitory activity against [3H]N-methyl-scopolamine binding to Muscarinic acetylcholine receptor M2 in rat cerebellum; type: tissue-based
# T2 sequence (P10980 whole entry): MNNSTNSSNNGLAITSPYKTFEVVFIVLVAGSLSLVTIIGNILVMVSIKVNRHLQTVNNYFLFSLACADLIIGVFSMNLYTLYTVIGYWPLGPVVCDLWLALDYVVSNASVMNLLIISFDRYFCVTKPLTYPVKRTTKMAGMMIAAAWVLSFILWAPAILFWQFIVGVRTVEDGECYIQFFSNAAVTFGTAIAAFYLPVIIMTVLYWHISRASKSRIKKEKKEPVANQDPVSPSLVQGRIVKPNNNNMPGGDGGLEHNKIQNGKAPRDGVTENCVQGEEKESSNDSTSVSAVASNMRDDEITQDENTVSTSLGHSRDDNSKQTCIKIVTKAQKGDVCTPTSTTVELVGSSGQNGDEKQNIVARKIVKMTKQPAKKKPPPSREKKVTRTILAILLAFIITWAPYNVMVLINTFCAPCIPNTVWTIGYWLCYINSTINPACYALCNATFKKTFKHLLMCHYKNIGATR
# [4] = target: T3, Adrenergic receptor alpha-2 (Rattus norvegicus, UniProt P22086+P19328+P22909); experiment: Inhibitory activity against [3H]-idazoxan binding to Alpha-2 adrenergic receptor in rat cortex
# T3 sequence (P22086 whole entry): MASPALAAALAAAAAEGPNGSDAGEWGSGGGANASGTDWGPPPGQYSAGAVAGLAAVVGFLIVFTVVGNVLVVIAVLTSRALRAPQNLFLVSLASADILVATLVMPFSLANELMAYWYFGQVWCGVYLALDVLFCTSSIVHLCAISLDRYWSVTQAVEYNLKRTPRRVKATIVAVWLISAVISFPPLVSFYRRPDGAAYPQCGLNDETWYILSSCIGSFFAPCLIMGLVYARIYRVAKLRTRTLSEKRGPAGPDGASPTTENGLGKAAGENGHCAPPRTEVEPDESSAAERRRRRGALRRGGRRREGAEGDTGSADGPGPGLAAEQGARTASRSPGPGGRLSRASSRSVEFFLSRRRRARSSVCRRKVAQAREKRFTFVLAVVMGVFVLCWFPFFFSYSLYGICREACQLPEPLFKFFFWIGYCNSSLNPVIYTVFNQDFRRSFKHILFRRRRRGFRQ
# T3 sequence (P19328 whole entry): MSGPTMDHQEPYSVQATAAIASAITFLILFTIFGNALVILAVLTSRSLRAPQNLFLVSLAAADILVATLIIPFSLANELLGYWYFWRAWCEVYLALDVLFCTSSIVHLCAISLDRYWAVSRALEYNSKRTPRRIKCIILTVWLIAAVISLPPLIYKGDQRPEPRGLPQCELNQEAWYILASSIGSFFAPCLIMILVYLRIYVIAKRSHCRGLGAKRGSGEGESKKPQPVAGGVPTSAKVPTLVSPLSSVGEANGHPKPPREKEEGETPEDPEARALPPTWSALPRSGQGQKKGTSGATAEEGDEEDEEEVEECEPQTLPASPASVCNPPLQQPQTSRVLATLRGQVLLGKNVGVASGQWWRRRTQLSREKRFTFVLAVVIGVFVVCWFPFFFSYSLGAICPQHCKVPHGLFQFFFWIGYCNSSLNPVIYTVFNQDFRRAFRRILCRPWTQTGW
# T3 sequence (P22909 whole entry): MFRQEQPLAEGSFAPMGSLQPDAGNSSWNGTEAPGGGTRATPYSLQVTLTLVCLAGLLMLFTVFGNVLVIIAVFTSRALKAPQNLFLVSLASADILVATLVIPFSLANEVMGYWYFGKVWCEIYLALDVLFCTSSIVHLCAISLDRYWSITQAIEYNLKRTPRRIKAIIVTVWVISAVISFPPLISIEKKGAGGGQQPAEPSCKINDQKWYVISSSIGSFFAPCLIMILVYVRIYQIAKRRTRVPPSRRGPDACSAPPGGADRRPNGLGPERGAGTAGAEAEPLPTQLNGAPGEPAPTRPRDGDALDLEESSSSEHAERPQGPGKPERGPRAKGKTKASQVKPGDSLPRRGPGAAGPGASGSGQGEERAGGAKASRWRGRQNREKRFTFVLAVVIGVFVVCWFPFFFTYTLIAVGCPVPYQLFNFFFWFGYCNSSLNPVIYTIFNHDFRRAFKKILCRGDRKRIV
# [5] = target: 5-hydroxytryptamine receptor 1B (Rattus norvegicus, UniProt P28564); experiment: Inhibitory activity against [3H]5-HT binding to 5-HT1B receptor in rat striatum; type: tissue-based
# Sequence of 5-hydroxytryptamine receptor 1B (P28564 whole entry): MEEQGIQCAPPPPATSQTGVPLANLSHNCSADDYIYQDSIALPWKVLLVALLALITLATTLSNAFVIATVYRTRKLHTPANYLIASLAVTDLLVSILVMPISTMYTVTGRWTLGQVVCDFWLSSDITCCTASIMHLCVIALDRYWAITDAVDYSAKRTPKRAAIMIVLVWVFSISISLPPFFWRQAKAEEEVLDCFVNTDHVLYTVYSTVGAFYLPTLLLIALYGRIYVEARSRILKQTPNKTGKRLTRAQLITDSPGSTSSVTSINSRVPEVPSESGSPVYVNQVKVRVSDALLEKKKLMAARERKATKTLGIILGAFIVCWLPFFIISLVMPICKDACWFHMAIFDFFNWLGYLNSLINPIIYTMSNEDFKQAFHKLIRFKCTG
# [6] = target: T2, Muscarinic acetylcholine receptor M2; experiment: Inhibitory activity against [3H]N-methyl-scopolamine in rat Muscarinic acetylcholine receptor M2 cerebellum in the presence GPP(NH)P; type: tissue-based
# [7] = target: T4, Muscarinic acetylcholine receptor M1 (Rattus norvegicus, UniProt P08482); experiment: Inhibitory activity against [3H]pirenzepine binding to muscarinic M1 receptor in rat cortex
# T4 sequence (P08482 whole entry): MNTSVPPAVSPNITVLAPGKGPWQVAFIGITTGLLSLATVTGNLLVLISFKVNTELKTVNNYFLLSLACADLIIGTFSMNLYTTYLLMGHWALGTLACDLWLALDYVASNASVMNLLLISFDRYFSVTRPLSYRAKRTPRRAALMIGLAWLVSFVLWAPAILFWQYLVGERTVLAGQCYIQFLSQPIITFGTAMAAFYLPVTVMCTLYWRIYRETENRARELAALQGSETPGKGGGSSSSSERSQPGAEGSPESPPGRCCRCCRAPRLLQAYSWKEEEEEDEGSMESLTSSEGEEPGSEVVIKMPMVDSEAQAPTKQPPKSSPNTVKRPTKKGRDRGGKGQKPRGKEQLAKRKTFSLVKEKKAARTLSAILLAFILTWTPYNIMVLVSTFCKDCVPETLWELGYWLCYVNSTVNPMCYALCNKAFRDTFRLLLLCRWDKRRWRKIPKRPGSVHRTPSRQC
compound,measurement,setting,value
CCCN(c1ccncc1)n1ccc2ccccc21 [BESIPIRDINE],Antagonism,Mus musculus,5
same,IC50,[1],> 20 µM
same,IC50,[2],< 20 µM
same,IC50,[3],1 µM
same,IC50,[4],0.47 µM
same,IC50,[5],> 20 µM
same,IC50,[6],0.65 µM
same,IC50,[7],1.3 µM
